The values that follow come from patent publication US20110183978A1, “Phenylpyri(mi)dinylazoles” (Bayer CropScience AG, priority 2009, published 2011).

The data set in a line: physchem.
The mark [1] stands for this setting: LogPA (logP of the stated pure compound or, in a mixture, of the main isomer, 1-substituted 3-aryl-1H-pyrazole).

`CCC(=O)Nc1cc(-c2cn(CCOC)nc2-c2ccc(F)cc2)ccn1` [[I-2], N-{4-[3-(4-Fluorophenyl)-1-(2-methoxyethyl)-1H-pyrazol-4-yl]pyridin-2-yl}propanamide] had a chromatographic logP (pH 2.7, logP (pH 2.7)) of 1.61.
The compound `Cc1[nH]nc(-c2ccc(F)cc2)c1-c1ccncc1` [[IX-b-1], 4-[3-(4-Fluorophenyl)-5-methyl-1H-pyrazol-4-yl]pyridine] displayed a chromatographic logP (pH 2.7, logP (pH 2.7)) of 0.6.
Turning to `CCn1cc(-c2ccnc(N)c2)c(-c2ccc(F)cc2)n1` [[III-3], 4-[1-Ethyl-3-(4-fluorophenyl)-1H-pyrazol-4-yl]pyridin-2-amine], the chromatographic logP worked out at 0.97 (pH 2.3, LogP (pH 2.3)) and 0.97 (pH 2.7, logP (pH 2.7)).
Take `CC(C)n1cc(-c2ccnc(N)n2)c(-c2ccc(F)cc2)n1` [[III-a-1], 4-[3-(4-Fluorophenyl)-1-isopropyl-1H-pyrazol-4-yl]pyrimidin-2-amine]: the chromatographic logP (pH 2.7, logP (pH 2.7)) came to 1.54.
With `c1cnc2c(-c3c(-c4ccncc4)cnn3C3CCCCO3)cccc2c1` (centres unmarked) [[X-24], 8-[4-(pyridin-4-yl)-1-(tetrahydro-2H-pyran-2-yl)-1H-pyrazol-5-yl]quinoline], the chromatographic logP (pH 2.3, LogP (pH 2.3)) was 1.09.
Consider `Fc1ccc(-c2nn(Cc3ccc(OC(F)F)cc3)cc2-c2ccncc2)cc1` [Compound 109], for which the chromatographic logP under setting [1] worked out at 1.88.
In the case of `CCC(C)n1cc(Br)c(-c2ccc(F)cc2)n1` (centres unmarked) [[VI-19], 4-Bromo-1-sec-butyl-3-(4-fluorophenyl)-1H-pyrazole], the chromatographic logP came out at 4.39 (pH 2.3, LogP (pH 2.3)) and 4.39 (pH 2.7, logP (pH 2.7)).
For `C#CCn1ccc2c(-c3cn(C4CCCCO4)nc3-c3ccc(F)cc3)ccnc21` (centres unmarked) [Compound 49], the chromatographic logP under setting [1] was 3.47.
For the setting “pH 2.7, logP (pH 2.7)”, `CC(C)Cn1cc(-c2ccnc(NC(=O)C(C)C)c2)c(-c2ccc(F)cc2)n1` [[I-c-2], N-{4-[3-(4-fluorophenyl)-1-isobutyl-1H-pyrazol-4-yl]pyridin-2-yl}-2-methylpropanamide] came in with a chromatographic logP of 2.89.
For the compound `COc1ccc(-c2nn(C3CCCCO3)cc2-c2ccnc3[nH]ccc23)cc1` (centres unmarked) [Compound 80], the chromatographic logP under setting [1] was 1.87.
Take `Cn1cc(-c2ccnc(N)c2)c(-c2ccc(F)cc2)n1` [[III-5], 4-[3-(4-Fluorophenyl)-1-methyl-1H-pyrazol-4-yl]pyridin-2-amine]: the chromatographic logP runs as follows: (pH 2.3, LogP (pH 2.3)) 0.71; (pH 2.7, logP (pH 2.7)) 0.71.
For the compound `Fc1ccc(-c2c(-c3ccncc3)cnn2C2CCCCO2)cc1Cl` (centres unmarked) [[X-6], 4-[5-(3-chloro-4-fluorophenyl)-1-(tetrahydro-2H-pyran-2-yl)-1H-pyrazol-4-yl]pyridine], for the setting “pH 2.3, LogP (pH 2.3)”, the chromatographic logP was determined as 1.57.
`CC(C)Cn1cc(-c2ccnc(N(C(=O)C(C)C)C(=O)C(C)C)n2)c(-c2ccc(F)cc2)n1` [Compound 188] had a chromatographic logP (LogPA) of 4.74.
In the case of `CCOCCn1cc(Br)c(-c2ccc(F)cc2)n1` [[VI-20], 4-Bromo-1-(2-ethoxyethyl)-3-(4-fluorophenyl)-1H-pyrazole], the chromatographic logP (pH 2.3, LogP (pH 2.3)) was determined as 3.51 and the chromatographic logP (pH 2.7, logP (pH 2.7)) is 3.51.
Regarding `FC(F)(F)Oc1ccc(-c2c(-c3ccncc3)cnn2C2CCCCO2)cc1` (centres unmarked) [[X-19], 4-{1-(tetrahydro-2H-pyran-2-yl)-5-[4-(trifluoromethoxy)phenyl]-1H-pyrazol-4-yl}pyridine], where the note is “pH 2.3, LogP (pH 2.3)”, the chromatographic logP was determined as 1.78.
As for `COc1ccc(-c2nn(C3CCCCO3)cc2-c2ccnc(N)c2)cc1` (centres unmarked) [Compound 69], the chromatographic logP under setting [1] amounted to 1.31.
For `Fc1ccc(Cn2cc(-c3ccncc3)c(-c3ccc(F)cc3)n2)cc1` [Compound 130], the chromatographic logP under setting [1] was 1.69.
`Fc1ccc(-c2c(-c3ccncc3)cnn2C2CCCCO2)c2ccccc12` (centres unmarked) [[X-3], 4-[5-(4-fluoro-1-naphthyl)-1-(tetrahydro-2H-pyran-2-yl)-1H-pyrazol-4-yl]pyridine] yielded a chromatographic logP (pH 2.3, LogP (pH 2.3)) of 1.72.
Turning to `CC(C)On1cc(B2OC(C)(C)C(C)(C)O2)c(-c2ccc(F)cc2)n1` [[V-5], 3-(4-Fluorophenyl)-1-isopropoxy-4-(4,4,5,5-tetramethyl-1,3,2-dioxaborolan-2-yl)-1H-pyrazole], the chromatographic logP reads like this: (pH 2.3, LogP (pH 2.3)) 4.81; (pH 2.7, logP (pH 2.7)) 4.81.
Regarding `CC(C)n1cc(-c2ccnc(NC(c3ccccc3)C(F)(F)F)c2)c(-c2ccc(F)cc2)n1` (centres unmarked) [Compound 325], the chromatographic logP (LogPA) worked out at 3.66.
For `CS(=O)(=O)c1ccc(-c2c(-c3ccncc3)cnn2C2CCCCO2)cc1` (centres unmarked) [Compound 68, 4-{5-[4-(methylsulphonyl)phenyl]-1-(tetrahydro-2H-pyran-2-yl)-1H-pyrazol-4-yl}pyridine], the chromatographic logP under setting [1] worked out at 0.96.
On to `O=C(Cc1ccncc1)c1c(F)cccc1F` [[XXV-1], 1-(2,6-Difluorophenyl)-2-(pyridin-4-yl)ethanone], for which, for the setting “pH 2.7, logP (pH 2.7)”, the chromatographic logP turned out to be 0.62.
Regarding `Nc1cc(-c2cn(CC(F)F)nc2-c2ccc(F)cc2)ccn1` [[III-4], 4-[1-(2,2-Difluoroethyl)-3-(4-fluorophenyl)-1H-pyrazol-4-yl]pyridin-2-amine], the chromatographic logP amounted to 1.03 (pH 2.3, LogP (pH 2.3)) and 1.03 (pH 2.7, logP (pH 2.7)).
For the compound `Fc1ccc(-c2[nH]nc(C3CC3)c2-c2ccncc2)cc1` [[IX-b-2], 4-[3-(4-Fluorophenyl)-5-cyclopropyl-1H-pyrazol-4-yl]pyridine], under “pH 2.7, logP (pH 2.7)”, the chromatographic logP was determined as 0.92.
As to `CCNc1cc(-c2cn(C3CCCCO3)nc2-c2ccc(F)cc2)ncn1` (centres unmarked) [Compound 63], under setting [1], the chromatographic logP stood at 1.42.
For `c1cnc2c(-c3c(-c4ccncc4)cnn3C3CCCCO3)cccc2c1` (centres unmarked) [Compound 99, 8-[4-(pyridin-4-yl)-1-(tetrahydro-2H-pyran-2-yl)-1H-pyrazol-5-yl]quinoline], under setting [1], the chromatographic logP was determined as 1.09.
Same read-out and setting: as for `CC(C)(C)C(=O)Nc1cc(-c2cn(C3CCCCO3)nc2-c2cccc(C(F)(F)F)c2)ccn1` (centres unmarked) [Compound 48], the figure is 4.1.
In turn, `CC(C)C(=O)Nc1cc(-c2cn(OC3CCCC3)nc2-c2ccc(F)cc2)ccn1` [Compound 270] came in with a chromatographic logP (LogPA) of 3.65.
As for `Fc1ccc(-c2nn(Cc3ncc[nH]3)cc2-c2ccncc2)cc1` [Compound 143], the chromatographic logP under setting [1] worked out at 0.41.
As to `CC1(C)OB(c2cn(CC3CC3)nc2-c2ccc(F)cc2)OC1(C)C` [[V-8], 1-(Cyclopropylmethyl)-3-(4-fluorophenyl)-4-(4,4,5,5-tetramethyl-1,3,2-dioxaborolan-2-yl)-1H-pyrazole], the chromatographic logP is, setting by setting: (pH 2.3, LogP (pH 2.3)) 4.42; (pH 2.7, logP (pH 2.7)) 4.42.
As to `CC(C)Nc1nccc(C(=CN(C)C)C(=O)c2ccc(F)cc2)n1` [[XLV-1], 3-(Dimethylamino)-1-(4-fluorophenyl)-2-[2-(isopropylamino)pyrimidin-4-yl]prop-2-en-1-one], the chromatographic logP (pH 2.7, logP (pH 2.7)) was 1.45.
Turning to `CC1(C)OB(c2cn(CCCl)nc2-c2ccc(F)cc2)OC1(C)C` [[V-10], 1-(2-Chloroethyl)-3-(4-fluorophenyl)-4-(4,4,5,5-tetramethyl-1,3,2-dioxaborolan-2-yl)-1H-pyrazole], the chromatographic logP was 4.06 (pH 2.3, LogP (pH 2.3)) and 4.06 (pH 2.7, logP (pH 2.7)).
In the case of `CCn1cc(Br)c(-c2ccc(F)cc2)n1` [[VI-2], 4-Bromo-1-ethyl-3-(4-fluorophenyl)-1H-pyrazole], the chromatographic logP is, setting by setting: (pH 2.3, LogP (pH 2.3)) 3.32; (pH 2.7, logP (pH 2.7)) 3.37.
On to `COc1ccc(-c2nn(C3CCCCO3)cc2-c2cc(-n3cccn3)ncn2)cc1` (centres unmarked) [Compound 62], for which, under setting [1], the chromatographic logP stood at 3.32.
Compound `CC(C)n1cc(-c2ccnc(NC(=O)C3CC3)c2)c(-c2ccc(F)cc2)n1` [[I-c-1], N-{4-[3-(4-Fluorophenyl)-1-isopropyl-1H-pyrazol-4-yl]pyridin-2-yl}cyclopropanecarboxamide] registered a chromatographic logP (pH 2.7, logP (pH 2.7)) of 2.07.
The compound `N#Cc1cccc(Cn2ncc(-c3ccncc3)c2-c2ccc(F)cc2)c1` [[I-4], 3-{[5-(4-Fluorophenyl)-4-(pyridin-4-yl)-1H-pyrazol-1-yl]methyl}benzonitrile] registered a chromatographic logP (pH 2.7, logP (pH 2.7)) of 1.38.
Take `Clc1cccc(-c2c(-c3ccncc3)cnn2C2CCCCO2)c1Cl` (centres unmarked) [[X-20], 4-[5-(2,3-dichlorophenyl)-1-(tetrahydro-2H-pyran-2-yl)-1H-pyrazol-4-yl]pyridine]: the chromatographic logP (pH 2.3, LogP (pH 2.3)) was found to be 1.66.
As for `COc1cc(F)ccc1-c1c(-c2ccncc2)cnn1C1CCCCO1` (centres unmarked) [Compound 64, 4-[5-(4-fluoro-2-methoxyphenyl)-1-(tetrahydro-2H-pyran-2-yl)-1H-pyrazol-4-yl]pyridine], the chromatographic logP under setting [1] is 1.26.
For `COC(=O)C(C(C)C)n1cc(Br)c(-c2ccc(F)cc2)n1` (centres unmarked) [[VI-16], Methyl 2-[4-bromo-3-(4-fluorophenyl)-1H-pyrazol-1-yl]-3-methylbutanoate], the chromatographic logP is 4.27 (pH 2.3, LogP (pH 2.3)) and 4.27 (pH 2.7, logP (pH 2.7)).
`CC(C)Nc1nccc(-c2cn(CCCl)nc2-c2ccc(F)cc2)n1` [Compound 359] returned a chromatographic logP (LogPA) of 2.05.
As for `Fc1ccc(-c2nn(Cc3ccccc3F)cc2-c2ccncc2)cc1` [Compound 128], the chromatographic logP under setting [1] came to 1.84.
As for `Cn1cc(-c2ccnc(NC(=O)c3ccc(F)cc3)c2)c(-c2ccc(F)cc2)n1` [Compound 344], the chromatographic logP (LogPA) is 2.61.
Compound `CSc1nccc(-c2cn(C(C)C)nc2-c2ccc(F)cc2)n1` [[XL-1], 4-[3-(4-Fluorophenyl)-1-isopropyl-1H-pyrazol-4-yl]-2-(methylsulphanyl)pyrimidine] came in with a chromatographic logP (pH 2.7, logP (pH 2.7)) of 3.62.
Regarding `c1ccc(Oc2cccc(-c3c(-c4ccncc4)cnn3C3CCCCO3)c2)cc1` (centres unmarked) [Compound 67, 4-[5-(3-phenoxyphenyl)-1-(tetrahydro-2H-pyran-2-yl)-1H-pyrazol-4-yl]pyridine], the chromatographic logP under setting [1] was determined as 1.88.
Take `CCOC(=O)Nc1cc(-c2cn(Cc3ccccc3F)nc2-c2ccc(F)cc2)ccn1` [Compound 266]: under “LogPA”, the chromatographic logP was found to be 3.24.
Where the note is “LogPA”, `COCC(=O)Nc1cc(-c2c(-c3ccc(Cl)cc3F)nn(C)c2C(F)(F)F)ccn1` [Compound 202] gave a chromatographic logP of 3.45.
Regarding `O=C(Cc1ccnc(Cl)n1)c1ccc(F)cc1` [[XLIII-1], 2-(2-Chloropyrimidin-4-yl)-1-(4-fluorophenyl)ethanone], under “pH 2.7, logP (pH 2.7)”, the chromatographic logP came to 2.27.
As to `CC1(C)OB(c2cn(C3CC3)nc2-c2ccc(F)cc2)OC1(C)C` [[V-7], 1-Cyclopropyl-3-(4-fluorophenyl)-4-(4,4,5,5-tetramethyl-1,3,2-dioxaborolan-2-yl)-1H-pyrazole], the chromatographic logP reads like this: (pH 2.3, LogP (pH 2.3)) 3.47; (pH 2.7, logP (pH 2.7)) 3.47.

One may read the chromatographic logP as a lipophilicity value derived from retention on a column.
